Measured values from patent US9957274B2, “Indane inhibitors of EED and methods of their use” (AbbVie Inc., priority 2016, dated 2018).

biological target: EED (Homo sapiens, UniProt O75530); assay: EED TR-FRET Binding Assay (modified LanthaScreen competition assay)
Method: Compounds were tested in a modified LanthaScreen competition assay.
The following buffer was used to set up the binding reactions: 20 mM Tris-HCl pH 7.5, 200 mM NaCl, 0.01% Tween-20, 10 uM DTT (dithiothreitol), and 0.05% BSA (bovine serum albumin), with the DTT and BSA added fresh prior to initiating the binding assay. […] The reactions were then incubated for 1 hour at 25° C. in a humidified chamber prior to detection on the Perkin Elmer Envision plate reader using a Lanthascreen TR-FRET protocol.

EED, sequence (O75530 whole entry): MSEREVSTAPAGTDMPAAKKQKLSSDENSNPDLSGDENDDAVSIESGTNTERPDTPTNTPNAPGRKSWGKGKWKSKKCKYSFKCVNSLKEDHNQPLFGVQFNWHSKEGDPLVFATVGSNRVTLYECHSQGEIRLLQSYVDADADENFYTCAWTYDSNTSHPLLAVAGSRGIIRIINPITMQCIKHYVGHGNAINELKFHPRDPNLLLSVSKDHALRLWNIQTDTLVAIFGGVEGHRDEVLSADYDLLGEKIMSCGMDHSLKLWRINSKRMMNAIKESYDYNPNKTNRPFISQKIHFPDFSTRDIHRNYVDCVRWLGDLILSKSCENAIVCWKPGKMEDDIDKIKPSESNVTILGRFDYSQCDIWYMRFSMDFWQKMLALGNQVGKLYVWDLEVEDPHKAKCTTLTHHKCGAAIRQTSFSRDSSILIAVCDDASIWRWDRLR

Compound | IC50 [µM]
CN(C)[C@H]1CN(C2CCc3c(F)cccc32)C[C@@H]1c1cn(C)c2ccccc12 (mixture of isomers) [Example 90, rac-(3R,4S)-1-(4-fluoro-2,3-dihydro-1H-inden-1-yl)-N,N-dimethyl-4-(1-methyl-1H-indol-3-yl)pyrrolidin-3-amine] | 0.0208
CN(C)[C@@H]1CN([C@H]2CC(O)c3cccc(F)c32)C[C@H]1c1ccc(S(C)(=O)=O)cc1 (stereo partly drawn) [Example 33, (3S)-3-{(3S,4R)-3-(dimethylamino)-4-[4-(methanesulfonyl)phenyl]pyrrolidin-1-yl}-4-fluoro-2,3-dihydro-1H-inden-1-ol] | > 50
CN(C)[C@@H]1CN(C2CCc3cccc(F)c32)C[C@H]1c1cnc2n1CCCC2 (mixture of isomers) [Example 140, rac-(3S,4R)-1-(7-fluoro-2,3-dihydro-1H-inden-1-yl)-N,N-dimethyl-4-(5,6,7,8-tetrahydroimidazo[1,2-a]pyridin-3-yl)pyrrolidin-3-amine] | 0.0613
CN(C)[C@H]1CN([C@@H]2C[C@@H](O)c3cccc(F)c32)C[C@@H]1c1ccc(S(C)(=O)=O)cc1 (mixture of isomers) [Example 16, rac-(1R,3R)-3-{(3R,4S)-3-(dimethylamino)-4-[4-(methanesulfonyl)phenyl]pyrrolidin-1-yl}-4-fluoro-2,3-dihydro-1H-inden-1-ol] | 0.491
CN(C)[C@H]1CN(C2CCc3cccc(O)c32)C[C@@H]1c1cn(C)c2ccccc12 (stereo partly drawn) [Example 97, 3-[(3R,4S)-3-(dimethylamino)-4-(1-methyl-1H-indol-3-yl)pyrrolidin-1-yl]-2,3-dihydro-1H-inden-4-ol] | 0.0336
CN(C)[C@H]1CN([C@H]2CCc3ccccc32)C[C@@H]1c1ccc(S(C)(=O)=O)cc1 [Example 9, (3R,4S)-1-[(1S)-2,3-dihydro-1H-inden-1-yl]-4-[4-(methanesulfonyl)phenyl]-N,N-dimethylpyrrolidin-3-amine] | 0.0101
CC(=O)N1CCN(c2ccc([C@@H]3CN([C@H]4CCc5cccc(F)c54)C[C@H]3N(C)C)cc2)CC1 [Example 47, 1-[4-(4-{(3R,4S)-4-(dimethylamino)-1-[(1S)-7-fluoro-2,3-dihydro-1H-inden-1-yl]pyrrolidin-3-yl}phenyl)piperazin-1-yl]ethan-1-one] | 0.0423
CN(C)[C@@H]1CN(C2CCc3cccc(F)c32)C[C@H]1c1cn(C)c2c(C(=O)N3CC(F)C3)cccc12 (stereo partly drawn) [Example 104, {3-[(3R,4S)-4-(dimethylamino)-1-(7-fluoro-2,3-dihydro-1H-inden-1-yl)pyrrolidin-3-yl]-1-methyl-1H-indol-7-yl}(3-fluoroazetidin-1-yl)methanone] | 0.0153
CN(C)[C@H]1CN([C@@H]2CCc3cccc(F)c32)C[C@@H]1c1cn(C)c2cccnc12 (mixture of isomers) [Example 143, rac-(3R,4S)-1-[(1R)-7-fluoro-2,3-dihydro-1H-inden-1-yl]-N,N-dimethyl-4-(1-methyl-1H-pyrrolo[3,2-b]pyridin-3-yl)pyrrolidin-3-amine] | 0.0194
CN(C)[C@H]1CN(C2CCc3cccc(F)c32)C[C@@H]1c1cn(C)c2cc(Br)ccc12 (mixture of isomers) [Example 94, rac-(3R,4S)-4-(6-bromo-1-methyl-1H-indol-3-yl)-1-(7-fluoro-2,3-dihydro-1H-inden-1-yl)-N,N-dimethylpyrrolidin-3-amine] | 0.0049
CC(=O)N1CCN(c2ccc([C@H]3CN(C4CCc5ccccc54)C[C@@H]3N(C)C)cc2)CC1 (stereo partly drawn) [Example 42, 1-(4-{4-[(3S,4R)-1-(2,3-dihydro-1H-inden-1-yl)-4-(dimethylamino)pyrrolidin-3-yl]phenyl}piperazin-1-yl)ethan-1-one] | > 50
Cc1cc([C@H]2CN(C3c4ccccc4CC3O)C[C@@H]2N(C)C)ccc1C#N (mixture of isomers) [Example 38, rac-4-[(3S,4R)-4-(dimethylamino)-1-(2-hydroxy-2,3-dihydro-1H-inden-1-yl)pyrrolidin-3-yl]-2-methylbenzonitrile] | 0.0687
CN(C)[C@H]1CN([C@H]2CCc3cccc(F)c32)C[C@@H]1c1cn(C)c2cccnc12 (mixture of isomers) [Example 138, rac-(3R,4S)-1-[(1S)-7-fluoro-2,3-dihydro-1H-inden-1-yl]-N,N-dimethyl-4-(1-methyl-1H-pyrrolo[3,2-b]pyridin-3-yl)pyrrolidin-3-amine] | 0.119
CN(C)[C@H]1CN(C2CCc3cccc(F)c32)C[C@@H]1c1cn(C)c2cc(N3CCN(S(C)(=O)=O)CC3)ccc12 (mixture of isomers) [Example 120, rac-(3R,4S)-1-(7-fluoro-2,3-dihydro-1H-inden-1-yl)-4-{6-[4-(methanesulfonyl)piperazin-1-yl]-1-methyl-1H-indol-3-yl}-N,N-dimethylpyrrolidin-3-amine] | 0.00346
CC(=O)N1CCN(c2ccc([C@@H]3CN([C@@H]4CCc5cccc(F)c54)C[C@H]3N(C)C)cc2)CC1 [Example 48, 1-[4-(4-{(3R,4S)-4-(dimethylamino)-1-[(1R)-7-fluoro-2,3-dihydro-1H-inden-1-yl]pyrrolidin-3-yl}phenyl)piperazin-1-yl]ethan-1-one] | 0.018
CN(C)[C@H]1CN(C2CCc3cccc(F)c32)C[C@@H]1c1cn(C)c2c(Br)cccc12 (mixture of isomers) [Example 93, rac-(3R,4S)-4-(7-bromo-1-methyl-1H-indol-3-yl)-1-(7-fluoro-2,3-dihydro-1H-inden-1-yl)-N,N-dimethylpyrrolidin-3-amine] | 0.00276
CC(=O)N1CCN(c2ccc3c([C@H]4CN(C5CCc6cccc(F)c65)C[C@@H]4N(C)C)cn(C)c3c2)CC1 (mixture of isomers) [Example 121, rac-1-(4-{3-[(3S,4R)-4-(dimethylamino)-1-(7-fluoro-2,3-dihydro-1H-inden-1-yl)pyrrolidin-3-yl]-1-methyl-1H-indol-6-yl}piperazin-1-yl)ethan-1-one] | 0.00379

Results, then the compound that gave them:

IC50 [µM] | Compound
0.00389 | Cc1coc(-c2ccc([C@@H]3CN(C4CCc5cccc(F)c54)C[C@H]3N(C)C)cc2)n1 (mixture of isomers) [Example 69, rac-(3S,4R)-1-(7-fluoro-2,3-dihydro-1H-inden-1-yl)-N,N-dimethyl-4-[4-(4-methyl-1,3-oxazol-2-yl)phenyl]pyrrolidin-3-amine]
0.0143 | Cc1cc([C@H]2CN(C3CCc4cccc(F)c43)C[C@@H]2N(C)C)ccc1C(=O)O (mixture of isomers) [Example 36, rac-4-[(3S,4R)-4-(dimethylamino)-1-(7-fluoro-2,3-dihydro-1H-inden-1-yl)pyrrolidin-3-yl]-2-methylbenzoic acid]
0.0707 | COC(=O)c1ccc([C@H]2CN(C3CCc4cccc(Cl)c43)C[C@@H]2N(C)C)cc1 (mixture of isomers) [Example 21, rac-methyl 4-[(3S,4R)-1-(7-chloro-2,3-dihydro-1H-inden-1-yl)-4-(dimethylamino)pyrrolidin-3-yl]benzoate]
0.0123 | CN(C)[C@H]1CN(C2CCc3cccc(F)c32)C[C@@H]1c1ccc(C(=O)N2CCN(S(C)(=O)=O)CC2)cc1 (mixture of isomers) [Example 53, rac-{4-[(3S,4R)-4-(dimethylamino)-1-(7-fluoro-2,3-dihydro-1H-inden-1-yl)pyrrolidin-3-yl]phenyl}[4-(methanesulfonyl)piperazin-1-yl]methanone]
0.0109 | COC(=O)c1ccc2c([C@@H]3CN(C4CCc5cccc(F)c54)C[C@H]3N(C)C)cn(C)c2c1 (mixture of isomers) [Example 83, rac-methyl 3-[(3R,4S)-4-(dimethylamino)-1-(7-fluoro-2,3-dihydro-1H-inden-1-yl)pyrrolidin-3-yl]-1-methyl-1H-indole-6-carboxylate]
0.00184 | Cc1cc([C@H]2CN(C3CCc4cccc(F)c43)C[C@@H]2N(C)C)ccc1Br (mixture of isomers) [Example 27, rac-(3R,4S)-4-(4-bromo-3-methylphenyl)-1-(7-fluoro-2,3-dihydro-1H-inden-1-yl)-N,N-dimethylpyrrolidin-3-amine]
0.0132 | CC(=O)N1CCN(C(=O)c2ccc([C@H]3CN(C4CCc5cccc(F)c54)C[C@@H]3N(C)C)cc2)CC1 (mixture of isomers) [Example 55, rac-1-(4-{4-[(3S,4R)-4-(dimethylamino)-1-(7-fluoro-2,3-dihydro-1H-inden-1-yl)pyrrolidin-3-yl]benzoyl}piperazin-1-yl)ethan-1-one]
0.00115 | CN(C)[C@@H]1CN(C2CCc3cccc(F)c32)C[C@H]1c1ccc(N2CCN(C(=O)OC(C)(C)C)CC2)cc1 (stereo partly drawn) [Example 50, tert-butyl 4-{4-[(3R,4S)-4-(dimethylamino)-1-(7-fluoro-2,3-dihydro-1H-inden-1-yl)pyrrolidin-3-yl]phenyl}piperazine-1-carboxylate]
0.0124 | CN1CCN(C(=O)c2ccc([C@H]3CN(C4CCc5cccc(F)c54)C[C@@H]3N(C)C)cc2)CC1=O (mixture of isomers) [Example 51, rac-4-{4-[(3S,4R)-4-(dimethylamino)-1-(7-fluoro-2,3-dihydro-1H-inden-1-yl)pyrrolidin-3-yl]benzoyl}-1-methylpiperazin-2-one]
0.0148 | COC(=O)c1cccc2c([C@@H]3CN(C4CCc5cccc(F)c54)C[C@H]3N(C)C)cn(C)c12 (stereo partly drawn) [Example 86, methyl 3-[(3R,4S)-4-(dimethylamino)-1-(7-fluoro-2,3-dihydro-1H-inden-1-yl)pyrrolidin-3-yl]-1-methyl-1H-indole-7-carboxylate]
0.0232 | CN(C)[C@@H]1CN(C2CCc3cccc(F)c32)C[C@H]1c1ccc(C(=O)O)cc1 (mixture of isomers) [Example 29, rac-4-[(3R,4S)-4-(dimethylamino)-1-(7-fluoro-2,3-dihydro-1H-inden-1-yl)pyrrolidin-3-yl]benzoic acid]
0.000296 | COC(=O)c1cccc2c([C@H]3CN(C4CCc5cccc(F)c54)C[C@@H]3N(C)C)cn(C)c12 (stereo partly drawn) [Example 84, methyl 3-[(3S,4R)-4-(dimethylamino)-1-(7-fluoro-2,3-dihydro-1H-inden-1-yl)pyrrolidin-3-yl]-1-methyl-1H-indole-7-carboxylate]
